Patent publication US10266482B2, “Long-term memory inducing agent” (NATIONAL UNIVERSITY CORPORATION TOKYO MEDICAL AND DENTAL …, priority 2017, dated 2019)

What was measured:
young crickets [1] = test: AMK-related synthetic compounds inducing long-term memories in young crickets; assay type: in vivo, Gryllus bimaculatus; conditions: 3 μl of 1 μg/ml to the brain 20 minutes after single-time training
Method: Male (young) crickets about one week old following molting into their adult stage were used. Each of the crickets was placed in a 100 ml beaker three days before the experiment, and deprived of water for 2-3 days to enhance the desire of taking water. As the feed, about 10 pieces of insect feed were placed into the beaker.
In the same manner as “1.2, Olfactory associative conditioning” in Example 1, learning/training for smell and reward associative conditioning was conducted.
In the same manner as “1.3. Smell preference test” in Example 1, a test of smell preference was carried out.
As drugs, the AMK-related synthetic compounds (Compounds 1-10) synthesized in Example 2 above were used. For all of the drugs, 1 mg of the drug was initially dissolved in 100 μl of DMSO, and then diluted with physiological saline for crickets that was 10000 times the amount of the drug solution (final concentration: 1 μg/ml). In the administration experiments, 3 μl was administered to the brain via an aperture opened through a simple eye of the head using a 10-μl syringe.
Processing was conducted in the same manner as “1.5. Statistical processing” in Example 1.

young crickets [2] = test: Olfactory associative learning test in young crickets (single-time training, memory a day after); assay type: in vivo, Gryllus bimaculatus; conditions: 3 μl to the brain
Method: Male crickets about one week old (young) or three week old (aged) following molting into adult forms were used. Each of the crickets was placed into a 100 ml beaker three days before the experiment, and deprived of water for 2-3 days to enhance the desire of taking water. As the feed, about 10 pieces of insect feed were placed into the beaker.
A 1-ml syringe was used for smell and reward associative conditioning upon learning/training. The syringe contained water as the reward while a piece of paper (3 mm×3 mm) perfumed with peppermint essence was pierced into the needle to about 1 cm from the tip thereof. In this learning/training, the filter paper on the needle was brought near the antennae of the cricket to allow it to smell for 3 seconds and then a drop of water was put out from the tip of the needle and applied to the mouth of the cricket. When the associative conditioning was conducted for four times, the conditionings were conducted at intervals of 5 minutes.
Smell preference was examined by placing each cricket into a test arena. The arena consisted of a “standby chamber” and a “test chamber”. The floor of the “test chamber” had two holes each with a diameter of 4 cm which were communicated with two smell sources. The smell source was a plastic pot containing filter paper perfumed with essence of a smell (peppermint or vanilla) and covered with a gauze lid. In the preference test, each cricket was placed into the test chamber and allowed to walk freely for 4 minutes to search for the two smell sources. Two minutes after the start of the test, a rotary board having the smell sources was rotated to reverse the positions of the vanilla and the peppermint smells. During the test, the time the cricket spent placing its mouth to the gauze of the smell source was measured as a visiting time to the smell source, and the ratio of the visiting times of the two types of smells (PI value: preference index) was calculated according to the following formula to assess the relative preference to the mint smell. PI value=Tp/(Tp+Tv)×100 • Tp: Searching time for smell associated with the reward (peppermint) • Tv: Searching time for smell not associated with the reward (vanilla)
If the preferences for the two smells are equivalent, PI will be 50. Since crickets inherently prefer vanilla smell over peppermint smell, an average PI value prior to the learning/training is usually 25-35, The preference test was conducted before and after the learning/training to examine whether preference for the smell changes due to the learning/training.
As drugs, melatonin, N(1)-acetyl-N(2)-formyl-5-methoxykynuramine (AFMK), N(1)-acetyl-5-methoxykynuramine (AMK), 6-Hydroxymelatonin (6-HM), L-kynurenine, kynuramine, 8-Bromoguanoine 3′,5′-cyclic monophosphate sodium salt (8 br-cGMP) and cycloheximide (CHX) were used. Melatonin, 6-HM, kynurenine, kynuramine and 8br-cGMP were purchased from SIGMA Aldrich, AFMK was purchased from Cayman Chemical, AMK was purchased from Toronto Research Chemicals and CHX was purchased from Wako Pure Chemical Industries. The drugs other than 8br-cGMP and CHX were first dissolved in ethanol and then diluted with physiological saline for crickets to the respective concentrations. In the administration experiment, 3 μl was administered using a 10-μl syringe to the brain via an aperture opened through a simple eye of the head.
PI values were tested before the training and a day after the training in the same group by a Wilcoxon's-test.

aged crickets = test: Olfactory associative learning test in aged crickets (age-related memory disorder, training four times); assay type: in vivo, Gryllus bimaculatus; conditions: 500 μM, 3 μl, 20 minutes before training for four times
Method: Male crickets about one week old (young) or three week old (aged) following molting into adult forms were used. Each of the crickets was placed into a 100 ml beaker three days before the experiment, and deprived of water for 2-3 days to enhance the desire of taking water. As the feed, about 10 pieces of insect feed were placed into the beaker. A 1-ml syringe was used for smell and reward associative conditioning upon learning/training. The syringe contained water as the reward while a piece of paper (3 mm×3 mm) perfumed with peppermint essence was pierced into the needle to about 1 cm from the tip thereof. In this learning/training, the filter paper on the needle was brought near the antennae of the cricket to allow it to smell for 3 seconds and then a drop of water was put out from the tip of the needle and applied to the mouth of the cricket. When the associative conditioning was conducted for four times, the conditionings were conducted at intervals of 5 minutes. Smell preference was examined by placing each cricket into a test arena. The arena consisted of a “standby chamber” and a “test chamber”. […] The smell source was a plastic pot containing filter paper perfumed with essence of a smell (peppermint or vanilla) and covered with a gauze lid. In the preference test, each cricket was placed into the test chamber and allowed to walk freely for 4 minutes to search for the two smell sources. Two minutes after the start of the test, a rotary board having the smell sources was rotated to reverse the positions of the vanilla and the peppermint smells. During the test, the time the cricket spent placing its mouth to the gauze of the smell source was measured as a visiting time to the smell source, and the ratio of the visiting times of the two types of smells (PI value: preference index) was calculated according to the following formula to assess the relative preference to the mint smell. PI value=Tp/(Tp+Tv)×100 • Tp: Searching time for smell associated with the reward (peppermint) • Tv: Searching time for smell not associated with the reward (vanilla) If the preferences for the two smells are equivalent, PI will be 50. Since crickets inherently prefer vanilla smell over peppermint smell, an average PI value prior to the learning/training is usually 25-35, The preference test was conducted before and after the learning/training to examine whether preference for the smell changes due to the learning/training. […] Melatonin, 6-HM, kynurenine, kynuramine and 8br-cGMP were purchased from SIGMA Aldrich, AFMK was purchased from Cayman Chemical, AMK was purchased from Toronto Research Chemicals and CHX was purchased from Wako Pure Chemical Industries. The drugs other than 8br-cGMP and CHX were first dissolved in ethanol and then diluted with physiological saline for crickets to the respective concentrations. In the administration experiment, 3 μl was administered using a 10-μl syringe to the brain via an aperture opened through a simple eye of the head. PI values were tested before the training and a day after the training in the same group by a Wilcoxon's-test.

[3] = 5 μM, 20 minutes after single-time training

With `COc1ccc(N)c(C(=O)CCNC(=O)c2ccccn2)c1` [Compound 7, N-[3-(2-amino-5-methoxyphenyl)-3-oxopropyl]-2-picolinamide] the “effect in inducing long-term memory compared with AMK” value (“effect … compared with AMK” for short) (young crickets [1]) was “superior effects over AMK” and the melting point was 114 to 115.5 °C.

In the case of `COc1ccc(N)c(C(=O)CCNC(=O)c2ccc3ccccc3c2)c1` [Compound 6, N-[3-(2-amino-5-methoxyphenyl)-3-oxopropyl]-2-naphthamide], the “effect in inducing long-term memory after one day” value (young crickets [1]) is reported as “did not show significant difference with the number of individuals used this time but they showed a tendency to induce long-term memories” and the melting point is reported as 113.5 to 114.5 °C.

For `CCC(=O)NCCC(=O)c1cc(OC)ccc1N` [Compound 2, N-[3-(2-amino-5-methoxyphenyl)-3-oxopropyl]-propionamide], the “effect … compared with AMK” value (young crickets [1]) was “superior effects over AMK”.

In the case of `NCCC(=O)c1ccccc1N` [Compound 15, 3-amino-1-(2-aminophenyl)-1-propanone], the “long-term memory formation a day after the training” value (“long-term memory formation a day” for short) (young crickets [2]; [3]) is reported as “the long-term memories were formed”.

In the case of `COc1cc2c(CCNC(C)=O)c[nH]c2cc1O` [Compound 6-HM, 6-Hydroxymelatonin, reference compound], the “long-term memory formation a day” value (young crickets [2]; [3]) is reported as “a long-term memory was not formed” and the “long-term memory formation a day” value (young crickets [2]; 5 μM, 20 minutes before single-time training) is reported as “a long-term memory was not formed”.

In the case of `Nc1nc2c(nc(Br)n2[C@@H]2O[C@@H]3COP(=O)([O-])O[C@H]3[C@H]2O)c(=O)[nH]1.[Na+]` [Compound 8br-cGMP, 8-Bromoguanoine 3′,5′-cyclic monophosphate sodium salt, reference compound], the “long-term memory formation a day” value (young crickets [2]; 200 μM, 20 minutes after single-time training) is reported as “did not have the effect of inducing long-term memory” and the “long-term memory formation a day” value (young crickets [2]; 200 μM, 20 minutes before single-time training) is reported as “confirmed”.

For `N[C@@H](CCC(=O)N[C@@H](CS)C(=O)NCC(=O)O)C(=O)O` [glutathione], the “improvement in an age-related memory disorder” value (aged crickets) was “no improvement”.

For `COc1ccc(N)c(C(=O)CCNC(=O)c2ccccc2)c1` [Compound 3, N-[3-(2-amino-5-methoxyphenyl)-3-oxopropyl]-benzamide], the “effect … compared with AMK” value (young crickets [1]) was “superior effects over AMK”.

`COc1ccc(NC(C)=O)c(C(=O)CCNC(C)=O)c1` [Compound 13, N-[3-(2-acetylamino-5-methoxyphenyl)-3-oxopropyl]acetamide] gave a melting point of 143 to 145 °C.

For `O=C1O[C@H]([C@@H](O)CO)C(O)=C1O` [vitamin C], the “improvement in an age-related memory disorder” value (aged crickets) was “no improvement”.

In the case of `CC(=O)NCCC(=O)c1ccccc1N` [Compound 9, N-[3-(2-aminophenyl)-3-oxopropyl]acetamide], the “effect … compared with AMK” value (young crickets [1]) is reported as “superior effects over AMK”.

In the case of `Nc1ccccc1C(=O)CC(N)C(=O)O` (stereo not shown) [Compound 16, 3-[(2-aminophenyl)carbonyl]-2-aminopropionic acid], the “long-term memory formation a day” value (young crickets [2]; [3]) is reported as “the long-term memories were formed”.

`COc1ccc(N)c(C(=O)CCNC(=O)c2ccccc2OC)c1` [Compound 5, N-[3-(2-amino-5-methoxyphenyl)-3-oxopropyl]-2-methoxybenzamide] gave a melting point of 134.5 to 136 °C.

For `CC(=O)NCCC(=O)c1cc(Cl)ccc1N` [Compound 8, N-[3-(2-amino-5-chlorophenyl)-3-oxopropyl]-acetamide], the “effect in inducing long-term memory after one day” value (young crickets [1]) was “did not show significant difference with the number of individuals used this time but they showed a tendency to induce long-term memories” and the melting point was 121 to 122 °C.
